Results reported in publication PMC12430364, “Characterization of Human Recombinant β1,4-GalNAc-Transferase B4GALNT1 and Inhibition by Selected Compounds” (Molecules, 2025).
Each block holds one molecule with its values, some of them ahead of it.

Legend:
Type in all cases: biochemical
[1] = biological target: T1, β1,4-N-acetylgalactosaminyltransferase 1 (B4GALNT1, GM2 synthase) (Homo sapiens, UniProt Q00973); assay: radiolabeled UDP-[3H]GalNAc transfer to GM3, purified enzyme; […] inhibition at […] and IC50
T1 construct: soluble His8-tagged, amino acids 1–25 deleted
T1 sequence (Q00973 26-533): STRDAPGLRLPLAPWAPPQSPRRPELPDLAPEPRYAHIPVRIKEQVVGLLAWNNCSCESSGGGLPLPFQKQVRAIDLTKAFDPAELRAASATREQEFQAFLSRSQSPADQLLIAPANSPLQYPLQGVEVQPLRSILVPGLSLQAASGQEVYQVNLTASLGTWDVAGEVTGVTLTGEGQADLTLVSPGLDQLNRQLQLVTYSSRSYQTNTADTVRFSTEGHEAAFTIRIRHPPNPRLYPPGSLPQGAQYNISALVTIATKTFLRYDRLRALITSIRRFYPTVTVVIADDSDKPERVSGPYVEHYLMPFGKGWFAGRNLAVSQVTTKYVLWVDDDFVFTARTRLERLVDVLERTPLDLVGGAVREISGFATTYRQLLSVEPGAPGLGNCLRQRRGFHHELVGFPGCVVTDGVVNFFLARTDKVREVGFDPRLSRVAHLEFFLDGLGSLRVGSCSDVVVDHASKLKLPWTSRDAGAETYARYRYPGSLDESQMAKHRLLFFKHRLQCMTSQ

[2] = biological target: T1, β1,4-N-acetylgalactosaminyltransferase 1 (B4GALNT1, GM2 synthase); assay: % inhibition at […], radiolabeled GalNAc transfer assay, purified enzyme
[3] = biological target: T1, β1,4-N-acetylgalactosaminyltransferase 1 (B4GALNT1, GM2 synthase); assay: radiolabeled GalNAc transfer assay, purified enzyme, apparent KM

Molecule: CCCCCCCCCCC[n+]1ccn(CCCCCCn2cc[n+](CCCCCCCCCCC)c2)c1 [QT163]
- IC50 [1]: 200 µM

- inhibition at 1000 µM [2]: 44%
Molecule: CCCC(=O)N[C@@H]1[C@@H](O)[C@H](O)[C@@H](CO)O[C@H]1Sc1ccc2ccccc2c1 [compound 612, 2-naphthyl 2-butanamido-2-deoxy-1-thio-β-D-glucopyranoside]

- Km [3]: 500 µM
Molecule: GM3
